Assays:
Assay type in all cases: functional
Rattus norvegicus [1] = test: Tested for the effect on 8-OH-DPAT-induced lower lip retraction (LLR) in rat at dosage of 4 mg/kg
Mus musculus [2] = test: Effect on body temperature in mice at intraperitoneal dosage of 4 mg/kg, (compound administered 30 min before the test) after 90 min
Rattus norvegicus [3] = test: Tested for the effect on 8-OH-DPAT-induced behavior in reserpine pretreated rat against flat body posture at dosage of 8 mg/kg
Mus musculus [4] = test: Effect on 8-OH-DPAT-induced hypothermia in mice (5 mg/kg) at intraperitoneal dosage of 4 mg/kg of compound after 60 mins
Mus musculus [5] = test: Effect on body temperature in mice at intraperitoneal dosage of 8 mg/kg, (compound administered 30 min before the test) after 90 min
Mus musculus [6] = test: Effect on body temperature in mice at intraperitoneal dosage of 8 mg/kg, (compound administered 30 min before the test) after 45 min
Mus musculus [7] = test: Effect on body temperature in mice at intraperitoneal dosage of 8 mg/kg, (compound administered 30 min before the test) after 75 min
Mus musculus [8] = test: Effect on body temperature in mice at intraperitoneal dosage of 2 mg/kg, (compound administered 30 min before the test) after 45 min
Mus musculus [9] = test: Effect on body temperature in mice at intraperitoneal dosage of 2 mg/kg, (compound administered 30 min before the test) after 75 min
Mus musculus [10] = test: Effect on 8-OH-DPAT-induced hypothermia in mice (5 mg/kg) at intraperitoneal dosage of 2 mg/kg of compound after 45 mins
Rattus norvegicus [11] = test: Tested for the effect on 8-OH-DPAT-induced behavior in reserpine pretreated rat against forepaw treading at dosage of 4 mg/kg
Mus musculus [12] = test: Effect on body temperature in mice at intraperitoneal dosage of 1 mg/kg, (compound administered 30 min before the test) after 60 min
Mus musculus [13] = test: Effect on body temperature in mice at intraperitoneal dosage of 1 mg/kg, (compound administered 30 min before the test) after 45 min
Rattus norvegicus [14] = test: Tested for the effect on 8-OH-DPAT-induced behavior in reserpine pretreated rat against flat body posture at dosage of 4 mg/kg
Mus musculus [15] = test: Effect on 8-OH-DPAT-induced hypothermia in mice (5 mg/kg) at intraperitoneal dosage of 2 mg/kg of compound after 30 mins
Mus musculus [16] = test: Effect on body temperature in mice at intraperitoneal dosage of 1 mg/kg, (compound administered 30 min before the test) after 90 min

COc1ccccc1N1CCN(CCCn2nnc3ccccc32)CC1
LLR score (Rattus norvegicus [1]): 1.1 | Delta t (Mus musculus [2]): 0.2 °C | Behavioral score (Rattus norvegicus [3]): 8 | Delta t (Mus musculus [4]): 0.1 °C | Delta t (Mus musculus [5]): 0.2 °C | Delta t (Mus musculus [6]): 0.2 °C | Delta t (Mus musculus [7]): 0.2 °C | Delta t (Mus musculus [8]): 0.1 °C | Delta t (Mus musculus [9]): 0.2 °C | Delta t (Mus musculus [10]): 0.1 °C | Behavioral score (Rattus norvegicus [11]): 5.8 | Delta t (Mus musculus [12]): 0.1 °C | Delta t (Mus musculus [13]): 0.1 °C | Behavioral score (Rattus norvegicus [14]): 11.5 | Delta t (Mus musculus [15]): 0.2 °C | Delta t (Mus musculus [16]): 0.1 °C
